Measurements as given in ChEMBL document CHEMBL1201862, “PubChem BioAssay data set” (2004).
Activity calls are given as the source filed them.

Assays:
HEK293 = experiment: inhibitors of LMP1-driven NF-kB reporter, dose response, cell-based, HEK293, luciferase, cherry-pick (AID 588343); format: functional; conditions: Homo sapiens
[1] = target: Botulinum neurotoxin type A (Clostridium botulinum (strain Hall / ATCC 3502 / NCTC 13319 / Type A), UniProt P0DPI1); experiment: High-throughput multiplex microsphere dose response for inhibitors of toxin protease, specifically Botulinum neurotoxin light chain A protease, compounds from Cherry Pick 02.; format: functional; conditions: read-out: EC50_MICROM
[2] = target: Heat shock protein HSP 90-alpha (Homo sapiens, UniProt P07900); format: functional, organism-based
Hexokinase-1 = Hexokinase-1 (Homo sapiens, UniProt P19367); experiment: hexokinase 1 activators, dose response, selectivity assay for HKDC1 activator project, biochemical (AID 504762); format: functional
[3] = target: Botulinum neurotoxin type F (Clostridium botulinum, UniProt P30996); experiment: High-throughput multiplex microsphere dose response for inhibitors of toxin protease, specifically Botulinum neurotoxin light chain F protease, compounds from Cherry Pick 02.; format: functional; conditions: read-out: EC50_MICROM
Lethal factor = Lethal factor (Bacillus anthracis, UniProt P15917); experiment: High-throughput multiplex microsphere dose response for inhibitors of toxin protease, specifically Lethal Factor protease, compounds from Cherry Pick 02.; format: functional; conditions: read-out: EC50_MICROM
Nonstructural protein 1 = Nonstructural protein 1 (Influenza A virus, UniProt Q194T2); format: functional, Influenza A virus (A/California/07/2009(H1N1))
Hexokinase HKDC1 = target: T1, Hexokinase HKDC1 (Homo sapiens, UniProt Q2TB90); experiment: HKDC1 hexokinase activators, dose response, biochemical, W721R variant (AID 504730); format: functional
T1 sequence (Q2TB90 whole entry): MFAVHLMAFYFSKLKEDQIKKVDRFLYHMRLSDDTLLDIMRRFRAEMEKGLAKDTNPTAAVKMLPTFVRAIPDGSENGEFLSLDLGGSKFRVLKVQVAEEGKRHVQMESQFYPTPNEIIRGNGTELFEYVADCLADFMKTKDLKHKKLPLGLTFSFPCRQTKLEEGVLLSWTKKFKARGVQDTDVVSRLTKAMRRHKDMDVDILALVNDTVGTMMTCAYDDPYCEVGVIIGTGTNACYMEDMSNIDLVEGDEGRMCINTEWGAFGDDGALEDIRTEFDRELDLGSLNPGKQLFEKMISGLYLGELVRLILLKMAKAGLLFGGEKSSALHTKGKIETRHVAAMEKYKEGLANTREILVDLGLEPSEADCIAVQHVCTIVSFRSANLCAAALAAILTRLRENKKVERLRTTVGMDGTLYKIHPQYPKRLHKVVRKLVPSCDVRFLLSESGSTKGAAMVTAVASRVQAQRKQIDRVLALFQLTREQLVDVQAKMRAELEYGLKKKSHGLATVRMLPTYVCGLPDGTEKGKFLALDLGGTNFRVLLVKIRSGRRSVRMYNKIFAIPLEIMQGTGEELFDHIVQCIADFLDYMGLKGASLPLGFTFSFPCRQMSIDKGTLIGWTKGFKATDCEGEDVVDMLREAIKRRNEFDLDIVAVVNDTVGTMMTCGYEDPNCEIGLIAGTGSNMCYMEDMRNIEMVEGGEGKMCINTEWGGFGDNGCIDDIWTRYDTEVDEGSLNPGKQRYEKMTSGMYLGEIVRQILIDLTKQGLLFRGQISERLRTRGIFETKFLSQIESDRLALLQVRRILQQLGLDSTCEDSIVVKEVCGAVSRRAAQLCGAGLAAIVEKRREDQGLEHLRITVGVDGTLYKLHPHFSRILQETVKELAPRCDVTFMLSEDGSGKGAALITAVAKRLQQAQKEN

[4] = target: T2, Microphthalmia-associated transcription factor (Homo sapiens, UniProt O75030); experiment: TRPM1 promoter luciferase signal decrease, dose response, MITF inhibitor project, cell-based, SK-MEL-5, cherry-picked, set 3 (AID 493073); format: functional
T2 sequence (O75030 whole entry): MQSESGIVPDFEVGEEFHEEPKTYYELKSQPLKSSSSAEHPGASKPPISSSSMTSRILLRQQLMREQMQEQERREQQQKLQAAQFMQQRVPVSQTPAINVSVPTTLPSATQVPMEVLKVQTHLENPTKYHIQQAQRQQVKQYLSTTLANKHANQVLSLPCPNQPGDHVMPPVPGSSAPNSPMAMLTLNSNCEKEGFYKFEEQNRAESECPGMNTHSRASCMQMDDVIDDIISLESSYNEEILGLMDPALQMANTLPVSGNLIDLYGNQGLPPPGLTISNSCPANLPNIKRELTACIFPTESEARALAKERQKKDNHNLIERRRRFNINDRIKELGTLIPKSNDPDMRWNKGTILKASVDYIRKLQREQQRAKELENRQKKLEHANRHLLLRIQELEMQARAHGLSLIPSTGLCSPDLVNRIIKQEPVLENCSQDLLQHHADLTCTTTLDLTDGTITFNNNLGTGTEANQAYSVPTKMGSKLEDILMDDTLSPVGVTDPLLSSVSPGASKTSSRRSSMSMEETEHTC

[5] = target: Latent membrane protein 1 (Human herpesvirus 4 (strain B95-8), UniProt P03230); experiment: TES1-eGFP NF-kB reporter inhibition versus Tet-On dsRED, dose response, selectivity assay for LMP1 NF-kB inhibitor project, imaging, HEK293T, dual-color eGFP/dsRED, cherry-picks (AID 588398); format: functional, cell-based
[6] = target: Insulin-like growth factor 1 receptor (Homo sapiens, UniProt P08069); experiment: Navigating the Kinome. Panel member name: IGF1R; format: functional
[7] = target: Dual specificity mitogen-activated protein kinase kinase 1 (Homo sapiens, UniProt Q02750); experiment: Navigating the Kinome. Panel member name: MAP2K1; format: functional
[8] = target: Mitogen-activated protein kinase 9 (Homo sapiens, UniProt P45984); format: functional;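 also: value from a kinome panel profiling assay, MAPK9 panel entry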
Aurora kinase A = Aurora kinase A (Homo sapiens, UniProt O14965); format: functional;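 also: value from the Navigating the Kinome kinase panel profiling, panel entry STK6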
[9] = target: Dual specificity tyrosine-phosphorylation-regulated kinase 1A (Homo sapiens, UniProt Q13627); format: functional;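 also: measured against DYRK1A as one member of a broad kinome profiling panel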
[10] = target: Mitogen-activated protein kinase 8 (Homo sapiens, UniProt P45983); format: functional;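 also: value comes from one member of a kinome-wide kinase profiling panel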
[11] = target: cAMP-dependent protein kinase catalytic subunit PRKX (Homo sapiens, UniProt P51817); format: functional
[12] = target: Calcium/calmodulin-dependent protein kinase type II subunit alpha (Homo sapiens, UniProt Q9UQM7); experiment: Navigating the Kinome. Panel member name: CAMK2A; format: functional
[13] = target: 5'-AMP-activated protein kinase catalytic subunit alpha-1 (Homo sapiens, UniProt Q13131); format: functional
[14] = target: Platelet-derived growth factor receptor alpha (Homo sapiens, UniProt P16234); experiment: Navigating the Kinome. Panel member name: PDGFRA; format: functional
[15] = target: Mitogen-activated protein kinase kinase kinase kinase 2 (Homo sapiens, UniProt Q12851); format: functional;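 also: measured as one member of a kinome-wide kinase panel, with MAP4K2 as the panel entry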
[16] = target: Tyrosine-protein kinase receptor TYRO3 (Homo sapiens, UniProt Q06418); format: functional;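 also: TYRO3 value obtained as one member of a kinome-wide profiling panel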
[17] = target: Tyrosine-protein kinase Fyn (Homo sapiens, UniProt P06241); format: functional
[18] = target: Mitogen-activated protein kinase kinase kinase kinase 4 (Homo sapiens, UniProt O95819); format: functional
[19] = target: Tyrosine-protein kinase Lck (Homo sapiens, UniProt P06239); format: functional;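 also: lck was assayed as one member of a kinase panel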
[20] = target: ALK tyrosine kinase receptor (Homo sapiens, UniProt Q9UM73); format: functional;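 also: ALK tested as one member of a kinase panel screen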
[21] = target: Serine/threonine-protein kinase PAK 4 (Homo sapiens, UniProt O96013); format: functional;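 also: value obtained within a kinome profiling panel in which PAK4 was one of the panel members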
[22] = target: Leucine-rich repeat serine/threonine-protein kinase 2 (Homo sapiens, UniProt Q5S007); format: functional;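 also: value from a broad kinome-wide panel profiling study in which LRRK2 was one of the kinases tested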
[23] = target: MAP/microtubule affinity-regulating kinase 3 (Homo sapiens, UniProt P27448); format: functional;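 also: MARK3 affinity measured as one member of a kinome panel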
[24] = target: Cyclin-dependent kinase 9 (Homo sapiens, UniProt P50750); format: functional;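 also: value from the CDK9 entry of a kinome-spanning kinase panel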
[25] = target: G protein-coupled receptor kinase 5 (Homo sapiens, UniProt P34947); experiment: Navigating the Kinome. Panel member name: GPRK5; format: functional
[26] = target: Dual specificity protein kinase CLK4 (Homo sapiens, UniProt Q9HAZ1); format: functional
Sequence of Dual specificity protein kinase CLK4 (Q9HAZ1 whole entry): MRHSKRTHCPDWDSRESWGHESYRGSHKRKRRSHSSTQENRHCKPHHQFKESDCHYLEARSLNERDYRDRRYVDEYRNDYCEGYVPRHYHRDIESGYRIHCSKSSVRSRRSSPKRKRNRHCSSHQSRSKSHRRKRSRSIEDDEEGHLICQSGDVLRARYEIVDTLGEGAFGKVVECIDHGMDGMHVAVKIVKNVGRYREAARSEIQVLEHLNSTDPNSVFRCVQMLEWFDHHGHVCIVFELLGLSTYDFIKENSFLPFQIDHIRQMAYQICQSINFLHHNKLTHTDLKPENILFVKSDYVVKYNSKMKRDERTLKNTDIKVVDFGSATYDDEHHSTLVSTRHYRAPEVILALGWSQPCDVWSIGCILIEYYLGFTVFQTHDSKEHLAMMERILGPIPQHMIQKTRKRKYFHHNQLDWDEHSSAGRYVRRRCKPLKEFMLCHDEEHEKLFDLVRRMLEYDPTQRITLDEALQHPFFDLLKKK

[27] = target: Death-associated protein kinase 3 (Homo sapiens, UniProt O43293); format: functional;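 also: measured as one member of a kinome-wide profiling panel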
Sequence of Death-associated protein kinase 3 (O43293 whole entry): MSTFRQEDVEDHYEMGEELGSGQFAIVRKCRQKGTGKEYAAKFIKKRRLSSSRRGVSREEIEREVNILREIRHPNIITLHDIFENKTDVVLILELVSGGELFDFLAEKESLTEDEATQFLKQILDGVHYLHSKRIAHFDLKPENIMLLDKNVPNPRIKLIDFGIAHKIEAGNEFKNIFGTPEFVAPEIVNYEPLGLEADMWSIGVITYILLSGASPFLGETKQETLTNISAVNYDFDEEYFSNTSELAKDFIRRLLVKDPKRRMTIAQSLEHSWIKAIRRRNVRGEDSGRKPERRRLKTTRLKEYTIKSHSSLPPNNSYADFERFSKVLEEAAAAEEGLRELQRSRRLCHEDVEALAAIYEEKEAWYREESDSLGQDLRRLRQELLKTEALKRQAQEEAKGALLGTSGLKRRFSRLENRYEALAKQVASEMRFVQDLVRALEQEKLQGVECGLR

[28] = target: Dual specificity protein kinase CLK2 (Homo sapiens, UniProt P49760); format: functional
[29] = target: Mitogen-activated protein kinase kinase kinase kinase 5 (Homo sapiens, UniProt Q9Y4K4); format: functional;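 also: measured as one member of a kinome-spanning kinase panel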
[30] = target: Tyrosine-protein kinase JAK2 (Homo sapiens, UniProt O60674); format: functional;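 also: JAK2 tested as one member of a kinase panel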
[31] = target: Serine/threonine-protein kinase pim-1 (Homo sapiens, UniProt P11309); format: functional
[32] = target: Tyrosine-protein kinase JAK3 (Homo sapiens, UniProt P52333); format: functional
[33] = target: Serine/threonine-protein kinase N2 (Homo sapiens, UniProt Q16513); format: functional
Sequence of Serine/threonine-protein kinase N2 (Q16513 whole entry): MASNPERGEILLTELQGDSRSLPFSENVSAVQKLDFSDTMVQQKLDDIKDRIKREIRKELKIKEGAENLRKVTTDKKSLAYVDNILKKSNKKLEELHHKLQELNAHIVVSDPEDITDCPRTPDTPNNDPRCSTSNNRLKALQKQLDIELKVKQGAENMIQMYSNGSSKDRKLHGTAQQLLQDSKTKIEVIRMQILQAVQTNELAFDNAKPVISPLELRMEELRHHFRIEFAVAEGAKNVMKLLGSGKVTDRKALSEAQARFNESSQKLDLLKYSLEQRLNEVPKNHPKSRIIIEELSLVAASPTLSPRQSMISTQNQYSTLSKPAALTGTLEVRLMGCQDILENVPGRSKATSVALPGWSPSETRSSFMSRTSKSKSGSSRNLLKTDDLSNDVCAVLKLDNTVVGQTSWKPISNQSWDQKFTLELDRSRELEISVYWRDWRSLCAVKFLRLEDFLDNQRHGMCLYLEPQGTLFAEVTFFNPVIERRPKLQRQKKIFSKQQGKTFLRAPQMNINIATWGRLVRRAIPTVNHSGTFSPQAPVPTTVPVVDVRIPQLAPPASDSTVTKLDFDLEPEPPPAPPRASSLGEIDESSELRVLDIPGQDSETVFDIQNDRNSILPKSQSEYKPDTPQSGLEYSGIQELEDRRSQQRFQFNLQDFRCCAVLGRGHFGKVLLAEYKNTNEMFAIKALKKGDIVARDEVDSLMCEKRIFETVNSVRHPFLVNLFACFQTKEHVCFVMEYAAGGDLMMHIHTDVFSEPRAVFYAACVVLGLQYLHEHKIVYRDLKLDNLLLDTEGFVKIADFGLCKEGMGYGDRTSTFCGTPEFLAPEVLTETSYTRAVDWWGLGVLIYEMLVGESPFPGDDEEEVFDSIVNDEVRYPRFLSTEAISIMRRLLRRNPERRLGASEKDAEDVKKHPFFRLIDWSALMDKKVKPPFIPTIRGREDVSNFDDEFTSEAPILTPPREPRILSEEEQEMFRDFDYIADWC

[34] = target: Serine/threonine-protein kinase TBK1 (Homo sapiens, UniProt Q9UHD2); experiment: Navigating the Kinome. Panel member name: TBK1; format: functional
Sequence of Serine/threonine-protein kinase TBK1 (Q9UHD2 whole entry): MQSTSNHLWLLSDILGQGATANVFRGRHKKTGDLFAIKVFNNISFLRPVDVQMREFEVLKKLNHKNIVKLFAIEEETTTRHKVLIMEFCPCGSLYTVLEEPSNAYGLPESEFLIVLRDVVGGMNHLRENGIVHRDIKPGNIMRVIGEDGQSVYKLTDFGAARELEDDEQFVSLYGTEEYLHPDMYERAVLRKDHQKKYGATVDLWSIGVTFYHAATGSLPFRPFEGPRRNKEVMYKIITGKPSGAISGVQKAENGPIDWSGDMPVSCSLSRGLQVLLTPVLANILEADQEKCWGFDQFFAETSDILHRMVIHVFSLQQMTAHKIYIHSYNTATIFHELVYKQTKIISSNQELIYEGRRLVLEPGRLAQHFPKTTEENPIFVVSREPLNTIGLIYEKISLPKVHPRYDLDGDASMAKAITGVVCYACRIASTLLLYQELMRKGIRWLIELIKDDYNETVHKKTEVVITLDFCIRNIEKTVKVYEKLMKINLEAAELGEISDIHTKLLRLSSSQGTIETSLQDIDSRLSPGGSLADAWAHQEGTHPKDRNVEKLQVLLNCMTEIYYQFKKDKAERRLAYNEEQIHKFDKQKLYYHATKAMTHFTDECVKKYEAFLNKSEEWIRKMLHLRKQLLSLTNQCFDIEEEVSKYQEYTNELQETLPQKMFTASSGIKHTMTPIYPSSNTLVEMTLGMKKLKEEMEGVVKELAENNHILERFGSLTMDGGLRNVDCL

[35] = target: Tyrosine-protein kinase BTK (Homo sapiens, UniProt Q06187); format: functional
Sequence of Tyrosine-protein kinase BTK (Q06187 whole entry): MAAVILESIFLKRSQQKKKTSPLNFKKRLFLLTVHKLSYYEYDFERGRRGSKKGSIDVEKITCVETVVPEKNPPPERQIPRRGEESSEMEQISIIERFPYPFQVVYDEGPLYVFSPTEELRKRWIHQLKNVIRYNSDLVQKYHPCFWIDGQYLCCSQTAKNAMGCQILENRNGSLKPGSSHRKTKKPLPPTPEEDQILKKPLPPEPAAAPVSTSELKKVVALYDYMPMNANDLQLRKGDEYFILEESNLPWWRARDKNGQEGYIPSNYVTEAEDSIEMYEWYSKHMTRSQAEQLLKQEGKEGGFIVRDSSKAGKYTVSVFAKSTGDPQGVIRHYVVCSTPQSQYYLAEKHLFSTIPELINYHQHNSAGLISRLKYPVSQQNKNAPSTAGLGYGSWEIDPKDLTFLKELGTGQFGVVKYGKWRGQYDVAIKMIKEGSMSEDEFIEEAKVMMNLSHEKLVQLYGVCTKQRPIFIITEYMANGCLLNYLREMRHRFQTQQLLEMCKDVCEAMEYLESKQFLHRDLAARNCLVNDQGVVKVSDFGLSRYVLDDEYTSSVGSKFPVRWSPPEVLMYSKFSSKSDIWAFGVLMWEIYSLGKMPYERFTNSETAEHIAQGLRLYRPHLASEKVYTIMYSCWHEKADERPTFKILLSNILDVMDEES

[36] = target: Glycogen synthase kinase-3 beta (Homo sapiens, UniProt P49841); format: functional;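 also: value comes from a broad kinome profiling panel, with GSK3B as the panel member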
[37] = target: Fibroblast growth factor receptor 1 (Homo sapiens, UniProt P11362); format: functional
[38] = target: Vascular endothelial growth factor receptor 2 (Homo sapiens, UniProt P35968); format: functional
[39] = target: Macrophage colony-stimulating factor 1 receptor (Homo sapiens, UniProt P07333); format: functional;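 also: value comes from the Navigating the Kinome screening panel, CSF1R member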
[40] = target: High affinity nerve growth factor receptor (Homo sapiens, UniProt P04629); format: functional;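 also: NTRK1 tested as one member of a kinome-wide profiling panel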
[41] = target: Receptor-type tyrosine-protein kinase FLT3 (Homo sapiens, UniProt P36888); format: functional;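 also: FLT3 was tested as one member of a kinome-wide kinase panel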
[42] = target: Mitogen-activated protein kinase 14 (Homo sapiens, UniProt Q16539); format: functional;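 also: part of a kinome-wide panel, MAPK14 entry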
[43] = target: Dual specificity mitogen-activated protein kinase kinase 2 (Homo sapiens, UniProt P36507); experiment: Navigating the Kinome. Panel member name: MAP2K2; format: functional
Sequence of Dual specificity mitogen-activated protein kinase kinase 2 (P36507 whole entry): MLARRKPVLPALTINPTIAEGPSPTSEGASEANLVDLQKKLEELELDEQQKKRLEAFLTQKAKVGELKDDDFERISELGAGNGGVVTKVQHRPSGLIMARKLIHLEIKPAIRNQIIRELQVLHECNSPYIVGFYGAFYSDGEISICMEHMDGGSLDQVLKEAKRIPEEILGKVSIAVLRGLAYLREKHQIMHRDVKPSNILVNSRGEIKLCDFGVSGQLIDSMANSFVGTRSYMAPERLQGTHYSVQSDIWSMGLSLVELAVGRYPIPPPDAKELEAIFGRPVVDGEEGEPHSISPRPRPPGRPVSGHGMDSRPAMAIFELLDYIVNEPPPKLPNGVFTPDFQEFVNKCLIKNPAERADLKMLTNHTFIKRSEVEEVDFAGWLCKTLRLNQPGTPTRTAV

[44] = target: Serine/threonine-protein kinase TAO1 (Homo sapiens, UniProt Q7L7X3); format: functional
[45] = target: Macrophage-stimulating protein receptor (Homo sapiens, UniProt Q04912); experiment: Navigating the Kinome. Panel member name: MST1R; format: functional
[46] = target: Inhibitor of nuclear factor kappa-B kinase subunit epsilon (Homo sapiens, UniProt Q14164); experiment: Navigating the Kinome. Panel member name: IKBKE; format: functional
[47] = target: Tyrosine-protein kinase ABL1 (Homo sapiens, UniProt P00519); format: functional
Sequence of Tyrosine-protein kinase ABL1 (P00519 whole entry): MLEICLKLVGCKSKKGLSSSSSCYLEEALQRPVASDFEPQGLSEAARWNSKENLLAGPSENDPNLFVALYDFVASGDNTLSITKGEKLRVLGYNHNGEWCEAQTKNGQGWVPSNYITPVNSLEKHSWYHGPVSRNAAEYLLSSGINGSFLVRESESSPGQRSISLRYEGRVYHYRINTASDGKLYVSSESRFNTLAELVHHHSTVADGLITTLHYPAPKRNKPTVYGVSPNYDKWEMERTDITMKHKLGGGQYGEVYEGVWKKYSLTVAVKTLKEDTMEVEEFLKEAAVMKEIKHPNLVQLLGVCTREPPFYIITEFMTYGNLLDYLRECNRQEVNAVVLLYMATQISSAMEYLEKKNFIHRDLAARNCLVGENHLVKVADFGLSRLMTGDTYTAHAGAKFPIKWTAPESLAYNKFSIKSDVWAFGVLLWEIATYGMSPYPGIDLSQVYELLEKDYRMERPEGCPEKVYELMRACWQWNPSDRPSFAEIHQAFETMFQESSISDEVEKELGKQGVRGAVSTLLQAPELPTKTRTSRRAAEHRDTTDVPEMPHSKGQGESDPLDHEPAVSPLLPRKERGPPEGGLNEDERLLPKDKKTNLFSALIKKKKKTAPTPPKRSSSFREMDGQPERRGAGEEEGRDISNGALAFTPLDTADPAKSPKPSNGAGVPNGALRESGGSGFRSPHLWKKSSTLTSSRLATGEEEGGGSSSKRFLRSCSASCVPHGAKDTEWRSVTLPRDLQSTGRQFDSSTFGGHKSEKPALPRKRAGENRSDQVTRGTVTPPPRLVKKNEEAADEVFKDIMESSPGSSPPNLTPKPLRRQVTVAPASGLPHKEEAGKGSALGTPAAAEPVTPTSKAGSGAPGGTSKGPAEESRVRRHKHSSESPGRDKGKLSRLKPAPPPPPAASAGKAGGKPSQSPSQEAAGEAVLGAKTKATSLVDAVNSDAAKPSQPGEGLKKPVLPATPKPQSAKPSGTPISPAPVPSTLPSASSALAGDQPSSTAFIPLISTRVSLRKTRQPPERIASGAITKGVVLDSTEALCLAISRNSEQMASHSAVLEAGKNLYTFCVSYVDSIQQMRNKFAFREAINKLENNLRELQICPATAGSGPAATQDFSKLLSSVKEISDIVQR

[48] = target: Cyclin-dependent kinase 8 (Homo sapiens, UniProt P49336); experiment: Navigating the Kinome. Panel member name: CDK8; format: functional
[49] = target: Glycogen synthase kinase-3 alpha (Homo sapiens, UniProt P49840); format: functional;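 also: GSK3A result taken from a broad kinome-wide kinase panel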
[50] = target: Leukocyte tyrosine kinase receptor (Homo sapiens, UniProt P29376); experiment: Navigating the Kinome. Panel member name: LTK; format: functional
[51] = target: cAMP-dependent protein kinase catalytic subunit alpha (Homo sapiens, UniProt P17612); format: functional
[52] = target: Vascular endothelial growth factor receptor 1 (Homo sapiens, UniProt P17948); format: functional;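 also: measured within a kinome-wide profiling panel, FLT1 as the panel member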

## CC(=NNc1nc2ccccc2o1)c1cc2ccccc2cn1
HEK293
  AC50: 88.7 nM (active)
[1]
  EC50: 5.1 µM (active)
[2]
  AC50: 16.9 µM (active)
Hexokinase-1
  EC50: > 80 µM (inactive)
[3]
  EC50: 9.4 µM (active)
Lethal factor
  EC50: 20 µM (inactive)
Nonstructural protein 1
  IC50: 7.16 µM (active)
Hexokinase HKDC1
  EC50: 2.24 µM (active)
[4]
  AC50: 175 nM (active)
[5]
  AC50: 1.7 µM (active)

## Cc1cc(O)nc2[nH]nc(-c3cccc(-c4ccc(C#N)cc4)c3)c12
[6]
  Ki: > 2.51 µM (inactive)
[7]
  Ki: > 3.16 µM (inactive)
[8]
  Ki: > 3.98 µM (inactive)
Aurora kinase A
  Ki: > 1.58 µM (inactive)
[9]
  Ki: > 2 µM (inactive)
[10]
  Ki: > 5.01 µM (inactive)
[11]
  Ki: > 3.16 µM (inactive)
[12]
  Ki: > 7.94 µM (inactive)
[13]
  Ki: > 3.16 µM (inactive)
[14]
  Ki: > 2.51 µM (inactive)
[15]
  Ki: > 2.51 µM (inactive)
[16]
  Ki: > 3.16 µM (inactive)
[17]
  Ki: > 6.31 µM (inactive)
[18]
  Ki: > 5.01 µM (inactive)
[19]
  Ki: > 6.31 µM (inactive)
[20]
  Ki: > 6.31 µM (inactive)
[21]
  Ki: > 5.01 µM (inactive)
[22]
  Ki: > 2.51 µM (inactive)
[23]
  Ki: 1 nM (active)
[24]
  Ki: > 1.58 µM (inactive)
[25]
  Ki: > 3.98 µM (inactive)
[26]
  Ki: > 2.51 µM (inactive)
[27]
  Ki: > 5.01 µM (inactive)
[28]
  Ki: > 3.98 µM (inactive)
[29]
  Ki: > 3.98 µM (inactive)
[30]
  Ki: > 2.51 µM (inactive)
[31]
  Ki: > 6.31 µM (inactive)
[32]
  Ki: > 5.01 µM (inactive)
[33]
  Ki: > 5.01 µM (inactive)
[34]
  Ki: > 3.16 µM (inactive)
[35]
  Ki: > 6.31 µM (inactive)
[36]
  Ki: > 3.98 µM (inactive)
[37]
  Ki: > 3.98 µM (inactive)
[38]
  Ki: > 2.51 µM (inactive)
[39]
  Ki: > 2.51 µM (inactive)
[40]
  Ki: > 3.16 µM (inactive)
[41]
  Ki: > 3.16 µM (inactive)
[42]
  Ki: > 3.98 µM (inactive)
[43]
  Ki: > 3.98 µM (inactive)
[44]
  Ki: > 6.31 µM (inactive)
[45]
  Ki: > 3.98 µM (inactive)
[46]
  Ki: > 3.16 µM (inactive)
[47]
  Ki: > 3.98 µM (inactive)
[48]
  Ki: > 3.98 µM (inactive)
[49]
  Ki: 3.98 µM (active)
[50]
  Ki: > 2.51 µM (inactive)
[51]
  Ki: > 1.26 µM (inactive)
[52]
  Ki: > 3.98 µM (inactive)
